{"source": "patent US20070149485A1", "about": "“SELECTED DOSAGE FOR THE TREATMENT OF CARDIOVASCULAR AND RELATED PATHOLOGIES” (Medicure International, Inc., priority 2005, published 2007)", "key": {"[1]": {"test_system": "adenosine triphosphate (ATP) induced calcium ion influx into cells", "details": "a recent evaluation; suggested antagonism of P2 purinoceptors; cited from earlier work"}, "[2]": {"test_system": "high-risk patients undergoing CABG surgery with cardiopulmonary bypass", "test": "Oral P5P in high-risk patients undergoing CABG surgery (randomized, double-blind, placebo-controlled): myocardial infarction and combined incidents to POD 30", "assay_type": "in vivo, human", "details": "for Frequencies of myocardial infarction, cerebral infarction, or death, at POD 30: Myocardial infarction, cerebral infarction or death / Frequencies of myocardial infarction, cerebral infarction, or death, at POD 30: No myocardial infarction, cerebral infarction or death / Frequencies of myocardial infarction at POD 30: Myocardial Infarction / Frequencies of myocardial infarction at POD 30: No myocardial infarction: number of patients (% of group); for reducing post-CABG morbidity and mortality: CK-MB 100 ng/ml (post-hoc) as indicator; for reducing instances of myocardial infarction: vs placebo", "text": "A randomized, double-blind placebo-controlled, dose-ranging, parallel-arrn multi-center study was undertaken, on high-risk patients undergoing CABG surgery with cardiopulmonary bypass.\nPatients were identified as “high risk” if they had two or more of the following risk factors: • Age greater than 65 years; • Current smoker;\nApproximately 900 high risk pre-CABG patients in 42 different treatment centers in North America were screened and randomized to three groups of approximately 300 patients each, prior to their bypass surgery, as follows. Patients were either placed in a control group (placebo), treated orally with 250 mg/day of P5P (250 mg/day), or treated orally with 750 mg/day of P5P (750 mg/day).\nThe first dose of study medication was administered at 3-10 hours prior to CABG surgery. In the event of surgery delay or rescheduling, a second pre-operative dose of P5P was administered so that all patients received study medication 3-10 hours before surgery. Treatment continued for 30 days after surgery (post operative day (POD) 30). Patients received follow-up evaluations up to and including postoperative day (POD) 4, on POD 30 and on POD 90.\nPatients were measured for combined incidence of cardiovascular death, nonfatal myocardial infarction (MI), and nonfatal cerebral infarction up to and including post-operative day 30 (POD 30). Patients were also measured for nonfatal myocardial infarction alone. All deaths without an identifiable non-cardiovascular cause were considered of cardiovascular origin.\nCerebral infarction (stroke) was defined clinically as any new sudden onset focal neurological deficit lasting at least 24 hours as assessed by a neurologist and after neuroimaging (computed tomography [CT] brain scan or magnetic resonance imaging [MRI]) had excluded an intracerebral hemorrhage. All patients suspected of having a stroke or transient ischemic attack (TIA) received a neurological examination (conducted by a neurologist or internist with expertise in cerebral vascular disease) within 24 hours of onset of symptoms. All patients suspected of having a stroke were submitted to cerebral imaging.\nWhen determining whether a patient had myocardial infarction, the following definitions were used: • A peak creatine kinase—myocardial band (CK-MB) above a certain threshold. Since different experts and different prior art clinical trials used different cut-offs for this threshold, three different thresholds were used to determine whether a patient had myocardial infarction—a post-hoc cut off threshold of 100 ng/ml (a peak CK-MB of 100 ng/ml or greater on days up to and including POD 4), a post-hoc cut off threshold of 70 ng/ml, and a predefined cut off threshold of 50 ng/ml was used; • A new q-wave evidence of myocardial infarction along with CK-MB of 35 ng/ml or above on days up to and including POD 4; • A peak CK-MB of 5× ULN (25 ng/ml) or above occurring after POD 4; • A new q-wave evidence of myocardial infarction that was not present at POD 4; or • A q-wave or non-q-wave myocardial infarction as identified by the investigator and confirmed by the Clinical Endpoint Committee. A. Myocardial Infarction Rates CK-MB Cut-off of 100 ng/ml"}, "[3]": {"details": "in water, alcohol, and ether; cited from earlier work"}, "[4]": {"details": "oral 250 mg/day, CK-MB cut-off 50 ng/ml"}, "[5]": {"details": "oral 250 mg/day, CK-MB cut-off 50 ng/ml (predefined)"}, "[6]": {"details": "oral 250 mg/day, CK-MB cut-off 70 ng/ml"}, "[7]": {"details": "oral 250 mg/day, CK-MB cut-off 70 ng/ml (post-hoc)"}, "[8]": {"details": "oral 250 mg/day, CK-MB cut-off 100 ng/ml"}, "[9]": {"details": "oral 250 mg/day, CK-MB cut-off 100 ng/ml (post-hoc)"}, "[10]": {"details": "oral 750 mg/day, CK-MB cut-off 50 ng/ml"}, "[11]": {"details": "oral 750 mg/day, CK-MB cut-off 50 ng/ml (predefined)"}, "[12]": {"details": "oral 750 mg/day, CK-MB cut-off 70 ng/ml"}, "[13]": {"details": "oral 750 mg/day, CK-MB cut-off 70 ng/ml (post-hoc)"}, "[14]": {"details": "oral 750 mg/day, CK-MB cut-off 100 ng/ml"}, "[15]": {"details": "oral 750 mg/day, CK-MB cut-off 100 ng/ml (post-hoc)"}}}
{"smiles": "Cc1ncc(COP(=O)(O)O)c(C=O)c1O", "note": "[P5P, 3-hydroxy-2-methyl-5-[(phosphonooxy)methyl]-4-pyridine-carboxaldehyde]", "values": [{"measurement": "adenosine triphosphate (ATP) induced calcium ion influx into cells", "setting": "[1]", "result": "inhibits"}, {"measurement": "Frequencies of myocardial infarction, cerebral infarction, or death, at POD 30: Myocardial infarction, cerebral infarction or death", "setting": "[2]; [4]", "result": "65 (21.6%)"}, {"measurement": "Frequencies of myocardial infarction, cerebral infarction, or death, at POD 30: No myocardial infarction, cerebral infarction or death", "setting": "[2]; [4]", "result": "236 (78.4%)"}, {"measurement": "Frequencies of myocardial infarction at POD 30: Myocardial Infarction", "setting": "[2]; [5]", "result": "59 (19.6%)"}, {"measurement": "Frequencies of myocardial infarction at POD 30: No myocardial infarction", "setting": "[2]; [5]", "result": "242 (80.4%)"}, {"measurement": "Frequencies of myocardial infarction, cerebral infarction, or death, at POD 30: Myocardial infarction, cerebral infarction or death", "setting": "[2]; [6]", "result": "41 (13.6%)"}, {"measurement": "Frequencies of myocardial infarction, cerebral infarction, or death, at POD 30: No myocardial infarction, cerebral infarction or death", "setting": "[2]; [6]", "result": "260 (86.4%)"}, {"measurement": "Frequencies of myocardial infarction at POD 30: Myocardial Infarction", "setting": "[2]; [7]", "result": "34 (11.3%)"}, {"measurement": "Frequencies of myocardial infarction at POD 30: No myocardial infarction", "setting": "[2]; [7]", "result": "267 (88.7%)"}, {"measurement": "Frequencies of myocardial infarction, cerebral infarction, or death, at POD 30: Myocardial infarction, cerebral infarction or death", "setting": "[2]; [8]", "result": "31 (10.3%)"}, {"measurement": "Frequencies of myocardial infarction, cerebral infarction, or death, at POD 30: No myocardial infarction, cerebral infarction or death", "setting": "[2]; [8]", "result": "270 (89.7%)"}, {"measurement": "Frequencies of myocardial infarction at POD 30: Myocardial Infarction", "setting": "[2]; [9]", "result": "23 (7.6%)"}, {"measurement": "Frequencies of myocardial infarction at POD 30: No myocardial infarction", "setting": "[2]; [9]", "result": "278 (92.4%)"}, {"measurement": "Frequencies of myocardial infarction, cerebral infarction, or death, at POD 30: Myocardial infarction, cerebral infarction or death", "setting": "[2]; [10]", "result": "77 (25.6%)"}, {"measurement": "Frequencies of myocardial infarction, cerebral infarction, or death, at POD 30: No myocardial infarction, cerebral infarction or death", "setting": "[2]; [10]", "result": "224 (74.4%)"}, {"measurement": "Frequencies of myocardial infarction at POD 30: Myocardial Infarction", "setting": "[2]; [11]", "result": "71 (23.6%)"}, {"measurement": "Frequencies of myocardial infarction at POD 30: No myocardial infarction", "setting": "[2]; [11]", "result": "230 (76.4%)"}, {"measurement": "Frequencies of myocardial infarction, cerebral infarction, or death, at POD 30: Myocardial infarction, cerebral infarction or death", "setting": "[2]; [12]", "result": "47 (15.6%)"}, {"measurement": "Frequencies of myocardial infarction, cerebral infarction, or death, at POD 30: No myocardial infarction, cerebral infarction or death", "setting": "[2]; [12]", "result": "254 (84.4%)"}, {"measurement": "Frequencies of myocardial infarction at POD 30: Myocardial Infarction", "setting": "[2]; [13]", "result": "38 (12.6%)"}, {"measurement": "Frequencies of myocardial infarction at POD 30: No myocardial infarction", "setting": "[2]; [13]", "result": "263 (87.4%)"}, {"measurement": "Frequencies of myocardial infarction, cerebral infarction, or death, at POD 30: Myocardial infarction, cerebral infarction or death", "setting": "[2]; [14]", "result": "34 (11.3%)"}, {"measurement": "Frequencies of myocardial infarction, cerebral infarction, or death, at POD 30: No myocardial infarction, cerebral infarction or death", "setting": "[2]; [14]", "result": "267 (88.7%)"}, {"measurement": "Frequencies of myocardial infarction at POD 30: Myocardial Infarction", "setting": "[2]; [15]", "result": "23 (7.6%)"}, {"measurement": "Frequencies of myocardial infarction at POD 30: No myocardial infarction", "setting": "[2]; [15]", "result": "278 (92.4%)"}, {"measurement": "reducing post-CABG morbidity and mortality", "setting": "[2]; oral 250 mg/day", "result": "effective"}, {"measurement": "reducing total incidents (myocardial infarction, cerebral infarction, or death)", "setting": "[2]; [4]", "result": "highly effective"}, {"measurement": "reducing instances of myocardial infarction", "setting": "[2]; [4]", "result": "highly effective"}, {"measurement": "reducing total incidents (myocardial infarction, cerebral infarction, or death)", "setting": "[2]; oral 250 mg/day, CK-MB cut-off 70 ng/ml, better than 750 mg/day", "result": "highly effective"}, {"measurement": "reducing instances of myocardial infarction", "setting": "[2]; [6]", "result": "highly effective"}, {"measurement": "reducing total incidents (myocardial infarction, cerebral infarction, or death)", "setting": "[2]; oral 250 mg/day, CK-MB cut-off 100 ng/ml, better than 750 mg/day", "result": "highly effective"}, {"measurement": "reducing instances of myocardial infarction", "setting": "[2]; [8]", "result": "highly effective"}, {"measurement": "reducing post-CABG morbidity and mortality", "setting": "[2]; oral 750 mg/day", "result": "effective"}, {"measurement": "reducing total incidents (myocardial infarction, cerebral infarction, or death)", "setting": "[2]; [10]", "result": "did not reduce"}, {"measurement": "reducing instances of myocardial infarction", "setting": "[2]; [10]", "result": "not effective"}, {"measurement": "reducing total incidents (myocardial infarction, cerebral infarction, or death)", "setting": "[2]; [12]", "result": "highly effective"}, {"measurement": "reducing instances of myocardial infarction", "setting": "[2]; oral 750 mg/day, CK-MB cut-off 70 ng/ml, not as effective as 250 mg/day", "result": "effective"}, {"measurement": "reducing total incidents (myocardial infarction, cerebral infarction, or death)", "setting": "[2]; [14]", "result": "highly effective"}, {"measurement": "reducing instances of myocardial infarction", "setting": "[2]; [14]", "result": "highly effective"}, {"measurement": "effectiveness at reducing post-CABG morbidity and mortality, 250 mg/day compared with 750 mg/day", "setting": "[2]; oral, CK-MB level greater than 50 ng/ml (pre-defined) or 70 ng/ml (post-hoc) as indicator", "result": "higher effectiveness"}, {"measurement": "solubility", "setting": "[3]", "result": "essentially insoluble"}]}
